Test results from ChEMBL document CHEMBL1287778, “Antifungal agents. Part 5: synthesis and antifungal activities of aminoguanidine derivatives of N-arylsulfonyl-3-acylindoles” (2010).

System: Alternaria brassicae
Assay: Antifungal activity against Alternaria brassicae assessed as percent inhibition at 100 ug/ml
Type: functional

Compared with COc1ccc(S(=O)(=O)n2cc(/C(C)=N/NC(=N)N)c3ccc(C)cc32)cc1, C/C(=N\NC(=N)N)c1cn(S(=O)(=O)c2cccc([N+](=O)[O-])c2)c2cc(C)ccc12 is higher in inhibition at 100 µg/mL: 18.2% for the first, 33.3% for the second.

Going from Cc1ccc(S(=O)(=O)n2cc(/C=N/NC(=N)N)c3ccccc32)cc1 to Cc1ccc(S(=O)(=O)n2cc(/C=N/NC(=N)N)c3ccc(C)cc32)cc1, the inhibition at 100 µg/mL falls from 34.9% to 30.9%.

Going from CCCCC/C(=N\NC(=N)N)c1cn(S(=O)(=O)c2ccc(C)cc2)c2cc(C)ccc12 to C/C(=N\NC(=N)N)c1cn(S(=O)(=O)c2ccc(C)cc2)c2cccc(C)c12, the inhibition at 100 µg/mL rises from 22.8% to 56.9%.

First: CCCCC/C(=N\NC(=N)N)c1cn(S(=O)(=O)c2ccccc2)c2ccccc12
Second: C/C(=N\NC(=N)N)c1cn(S(=O)(=O)c2ccccc2)c2ccccc12
The inhibition at 100 µg/mL of the first is lower: 30% for the first, 40.2% for the second.

In the case of N#Cc1ccc2c(c1)c(/C=N/NC(=N)N)cn2S(=O)(=O)c1ccccc1, the inhibition at 100 µg/mL is reported as 9.09%.

System: Bipolaris sorokiniana
Assay: Antifungal activity against Bipolaris sorokiniana assessed as percent inhibition at 100 ug/ml
Type: functional

Compared with COc1ccc(S(=O)(=O)n2cc(/C(C)=N/NC(=N)N)c3ccc(C)cc32)cc1, C/C(=N\NC(=N)N)c1cn(S(=O)(=O)c2cccc([N+](=O)[O-])c2)c2cc(C)ccc12 is higher in inhibition at 100 µg/mL: 35% for the first, 37.6% for the second.

First: Cc1ccc(S(=O)(=O)n2cc(/C=N/NC(=N)N)c3ccccc32)cc1
Second: Cc1ccc(S(=O)(=O)n2cc(/C=N/NC(=N)N)c3ccc(C)cc32)cc1
The inhibition at 100 µg/mL of the first is higher: 66% for the first, 46.2% for the second.

Going from CCCCC/C(=N\NC(=N)N)c1cn(S(=O)(=O)c2ccc(C)cc2)c2cc(C)ccc12 to C/C(=N\NC(=N)N)c1cn(S(=O)(=O)c2ccc(C)cc2)c2cccc(C)c12, the inhibition at 100 µg/mL rises from 50.5% to 80.6%.

First: CCCCC/C(=N\NC(=N)N)c1cn(S(=O)(=O)c2ccccc2)c2ccccc12
Second: C/C(=N\NC(=N)N)c1cn(S(=O)(=O)c2ccccc2)c2ccccc12
The inhibition at 100 µg/mL of the first is lower: 50.2% for the first, 75.3% for the second.

In the case of N#Cc1ccc2c(c1)c(/C=N/NC(=N)N)cn2S(=O)(=O)c1ccccc1, the inhibition at 100 µg/mL is reported as 13.8%.

System: Alternaria alternata
Assay: Antifungal activity against Alternaria alternata assessed as percent inhibition at 100 ug/ml
Type: functional

First: COc1ccc(S(=O)(=O)n2cc(/C(C)=N/NC(=N)N)c3ccc(C)cc32)cc1
Second: C/C(=N\NC(=N)N)c1cn(S(=O)(=O)c2cccc([N+](=O)[O-])c2)c2cc(C)ccc12
The inhibition at 100 µg/mL of the first is lower: 42.5% for the first, 50.6% for the second.

Compared with Cc1ccc(S(=O)(=O)n2cc(/C=N/NC(=N)N)c3ccccc32)cc1, Cc1ccc(S(=O)(=O)n2cc(/C=N/NC(=N)N)c3ccc(C)cc32)cc1 is lower in inhibition at 100 µg/mL: 65.3% for the first, 59.2% for the second.

Compared with CCCCC/C(=N\NC(=N)N)c1cn(S(=O)(=O)c2ccc(C)cc2)c2cc(C)ccc12, C/C(=N\NC(=N)N)c1cn(S(=O)(=O)c2ccc(C)cc2)c2cccc(C)c12 is higher in inhibition at 100 µg/mL: 54.7% for the first, 83% for the second.

Compared with CCCCC/C(=N\NC(=N)N)c1cn(S(=O)(=O)c2ccccc2)c2ccccc12, C/C(=N\NC(=N)N)c1cn(S(=O)(=O)c2ccccc2)c2ccccc12 is higher in inhibition at 100 µg/mL: 60.6% for the first, 73.5% for the second.

With N#Cc1ccc2c(c1)c(/C=N/NC(=N)N)cn2S(=O)(=O)c1ccccc1 the inhibition at 100 µg/mL was 23.4%.

System: Fusarium oxysporum f. sp. vasinfectum
Assay: Antifungal activity against Fusarium oxysporum f. sp. vasinfectum assessed as percent inhibition at 100 ug/ml
Type: functional

Compared with COc1ccc(S(=O)(=O)n2cc(/C(C)=N/NC(=N)N)c3ccc(C)cc32)cc1, C/C(=N\NC(=N)N)c1cn(S(=O)(=O)c2cccc([N+](=O)[O-])c2)c2cc(C)ccc12 is lower in inhibition at 100 µg/mL: 24.2% for the first, 23.2% for the second.

Going from Cc1ccc(S(=O)(=O)n2cc(/C=N/NC(=N)N)c3ccccc32)cc1 to Cc1ccc(S(=O)(=O)n2cc(/C=N/NC(=N)N)c3ccc(C)cc32)cc1, the inhibition at 100 µg/mL falls from 51.8% to 40.5%.

Going from CCCCC/C(=N\NC(=N)N)c1cn(S(=O)(=O)c2ccc(C)cc2)c2cc(C)ccc12 to C/C(=N\NC(=N)N)c1cn(S(=O)(=O)c2ccc(C)cc2)c2cccc(C)c12, the inhibition at 100 µg/mL rises from 33.3% to 55.6%.

First: CCCCC/C(=N\NC(=N)N)c1cn(S(=O)(=O)c2ccccc2)c2ccccc12
Second: C/C(=N\NC(=N)N)c1cn(S(=O)(=O)c2ccccc2)c2ccccc12
The inhibition at 100 µg/mL of the first is lower: 30.7% for the first, 60% for the second.

N#Cc1ccc2c(c1)c(/C=N/NC(=N)N)cn2S(=O)(=O)c1ccccc1 gave an inhibition at 100 µg/mL of 14.1%.

System: not listed separately
Assay: Antifungal activity against Fusarium oxysporum f. sp. cucumerinum assessed as percent inhibition at 100 ug/ml
Type: functional

Going from COc1ccc(S(=O)(=O)n2cc(/C(C)=N/NC(=N)N)c3ccc(C)cc32)cc1 to C/C(=N\NC(=N)N)c1cn(S(=O)(=O)c2cccc([N+](=O)[O-])c2)c2cc(C)ccc12, the inhibition rises from 25.8% to 34.9%.

Compared with Cc1ccc(S(=O)(=O)n2cc(/C=N/NC(=N)N)c3ccccc32)cc1, Cc1ccc(S(=O)(=O)n2cc(/C=N/NC(=N)N)c3ccc(C)cc32)cc1 is higher in inhibition: 36.5% for the first, 43.5% for the second.

First: CCCCC/C(=N\NC(=N)N)c1cn(S(=O)(=O)c2ccc(C)cc2)c2cc(C)ccc12
Second: C/C(=N\NC(=N)N)c1cn(S(=O)(=O)c2ccc(C)cc2)c2cccc(C)c12
The inhibition of the first is lower: 39.8% for the first, 57% for the second.

Compared with CCCCC/C(=N\NC(=N)N)c1cn(S(=O)(=O)c2ccccc2)c2ccccc12, C/C(=N\NC(=N)N)c1cn(S(=O)(=O)c2ccccc2)c2ccccc12 is higher in inhibition: 38.6% for the first, 49.7% for the second.

N#Cc1ccc2c(c1)c(/C=N/NC(=N)N)cn2S(=O)(=O)c1ccccc1 showed an inhibition of 11.1%.

System: Fusarium graminearum
Assay: Antifungal activity against Fusarium graminearum assessed as percent inhibition at 100 ug/ml
Type: functional

Compared with COc1ccc(S(=O)(=O)n2cc(/C(C)=N/NC(=N)N)c3ccc(C)cc32)cc1, C/C(=N\NC(=N)N)c1cn(S(=O)(=O)c2cccc([N+](=O)[O-])c2)c2cc(C)ccc12 is lower in inhibition at 100 µg/mL: 44.8% for the first, 20.6% for the second.

First: Cc1ccc(S(=O)(=O)n2cc(/C=N/NC(=N)N)c3ccccc32)cc1
Second: Cc1ccc(S(=O)(=O)n2cc(/C=N/NC(=N)N)c3ccc(C)cc32)cc1
The inhibition at 100 µg/mL of the first is higher: 44.1% for the first, 39% for the second.

First: CCCCC/C(=N\NC(=N)N)c1cn(S(=O)(=O)c2ccc(C)cc2)c2cc(C)ccc12
Second: C/C(=N\NC(=N)N)c1cn(S(=O)(=O)c2ccc(C)cc2)c2cccc(C)c12
The inhibition at 100 µg/mL of the first is lower: 28.5% for the first, 46.6% for the second.

First: CCCCC/C(=N\NC(=N)N)c1cn(S(=O)(=O)c2ccccc2)c2ccccc12
Second: C/C(=N\NC(=N)N)c1cn(S(=O)(=O)c2ccccc2)c2ccccc12
The inhibition at 100 µg/mL of the first is higher: 39.4% for the first, 37.8% for the second.

With N#Cc1ccc2c(c1)c(/C=N/NC(=N)N)cn2S(=O)(=O)c1ccccc1 the inhibition at 100 µg/mL was 26%.

System: Pyricularia oryzae
Assay: Antifungal activity against Pyricularia oryzae assessed as percent inhibition at 100 ug/ml
Type: functional

Compared with COc1ccc(S(=O)(=O)n2cc(/C(C)=N/NC(=N)N)c3ccc(C)cc32)cc1, C/C(=N\NC(=N)N)c1cn(S(=O)(=O)c2cccc([N+](=O)[O-])c2)c2cc(C)ccc12 is higher in inhibition at 100 µg/mL: 43% for the first, 50.7% for the second.

Going from Cc1ccc(S(=O)(=O)n2cc(/C=N/NC(=N)N)c3ccccc32)cc1 to Cc1ccc(S(=O)(=O)n2cc(/C=N/NC(=N)N)c3ccc(C)cc32)cc1, the inhibition at 100 µg/mL rises from 56.7% to 58.2%.

Compared with CCCCC/C(=N\NC(=N)N)c1cn(S(=O)(=O)c2ccc(C)cc2)c2cc(C)ccc12, C/C(=N\NC(=N)N)c1cn(S(=O)(=O)c2ccc(C)cc2)c2cccc(C)c12 is higher in inhibition at 100 µg/mL: 44.5% for the first, 84.8% for the second.

Compared with CCCCC/C(=N\NC(=N)N)c1cn(S(=O)(=O)c2ccccc2)c2ccccc12, C/C(=N\NC(=N)N)c1cn(S(=O)(=O)c2ccccc2)c2ccccc12 is higher in inhibition at 100 µg/mL: 52% for the first, 74.3% for the second.

Compound N#Cc1ccc2c(c1)c(/C=N/NC(=N)N)cn2S(=O)(=O)c1ccccc1 has an inhibition at 100 µg/mL of 20.1%.
